Laboratory results published in US20080139624A1, “Oral Dosage Form Comprising Rosiglitazone” (priority 2005, published 2008).

Assay: pH dependent solubility
Format: physicochemical
Conditions: acidic conditions of the stomach (around pH 2) vs near neutral conditions of the lower intestine (around pH 7)

pH dependent solubility: marked pH dependent solubility
Compound: CN(CCOc1ccc(CC2SC(=O)NC2=O)cc1)c1ccccn1 (stereo not shown) [Compound A, 5-[4-[2-(N-methyl-N-(2 pyridyl)amino)ethoxy]benzyl]thiazolidine-2,4-dione]
